Here are results for eleven compounds from ChEMBL document CHEMBL1148870, “Novel inhibitors of VEGF receptors-1 and -2 based on azole-5-carboxamide templates” (Bioorg Med Chem Lett, 2007).

A value given as a limit tells only on which side of the number the result lay.

Experiment [1] concerns the target Vascular endothelial growth factor receptor 1 (Homo sapiens, UniProt P17948). Briefly: Inhibition of VEGFR1 assessed as inhibition of phosphorylation in presence of 2 uM ATP by HTRF assay. The experiment is classed as functional. (In general: TR-FRET usually uses a lanthanide donor and a delayed reading to cut background.)
The target in experiment [2] is Glycogen synthase kinase-3 beta (Homo sapiens) (UniProt P49841). Nature of the experiment: Inhibition of GSK3-beta at 10 uM. The arrangement: scale not given: the % may be the effect or the level left.
Chain of Glycogen synthase kinase-3 beta (Homo sapiens) (P49841 whole entry, looked up): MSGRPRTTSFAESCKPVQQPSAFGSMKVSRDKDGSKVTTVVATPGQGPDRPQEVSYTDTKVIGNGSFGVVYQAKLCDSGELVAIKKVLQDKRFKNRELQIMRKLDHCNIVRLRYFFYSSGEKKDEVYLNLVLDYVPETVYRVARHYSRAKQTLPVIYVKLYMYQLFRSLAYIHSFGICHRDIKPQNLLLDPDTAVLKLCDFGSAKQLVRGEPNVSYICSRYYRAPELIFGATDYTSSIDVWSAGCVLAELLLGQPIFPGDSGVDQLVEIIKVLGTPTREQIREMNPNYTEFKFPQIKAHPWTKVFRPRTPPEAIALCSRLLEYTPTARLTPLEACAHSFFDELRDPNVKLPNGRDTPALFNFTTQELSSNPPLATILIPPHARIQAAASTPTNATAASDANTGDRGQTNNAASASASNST
The target of experiment [3] is Receptor tyrosine-protein kinase erbB-2 (Homo sapiens) (UniProt P04626). Nature of the experiment: Inhibition of ErbB2/Her2 at 10 uM. Further details: scale not given: the % may be the effect or the level left.
Chain of Receptor tyrosine-protein kinase erbB-2 (Homo sapiens) (P04626 whole entry): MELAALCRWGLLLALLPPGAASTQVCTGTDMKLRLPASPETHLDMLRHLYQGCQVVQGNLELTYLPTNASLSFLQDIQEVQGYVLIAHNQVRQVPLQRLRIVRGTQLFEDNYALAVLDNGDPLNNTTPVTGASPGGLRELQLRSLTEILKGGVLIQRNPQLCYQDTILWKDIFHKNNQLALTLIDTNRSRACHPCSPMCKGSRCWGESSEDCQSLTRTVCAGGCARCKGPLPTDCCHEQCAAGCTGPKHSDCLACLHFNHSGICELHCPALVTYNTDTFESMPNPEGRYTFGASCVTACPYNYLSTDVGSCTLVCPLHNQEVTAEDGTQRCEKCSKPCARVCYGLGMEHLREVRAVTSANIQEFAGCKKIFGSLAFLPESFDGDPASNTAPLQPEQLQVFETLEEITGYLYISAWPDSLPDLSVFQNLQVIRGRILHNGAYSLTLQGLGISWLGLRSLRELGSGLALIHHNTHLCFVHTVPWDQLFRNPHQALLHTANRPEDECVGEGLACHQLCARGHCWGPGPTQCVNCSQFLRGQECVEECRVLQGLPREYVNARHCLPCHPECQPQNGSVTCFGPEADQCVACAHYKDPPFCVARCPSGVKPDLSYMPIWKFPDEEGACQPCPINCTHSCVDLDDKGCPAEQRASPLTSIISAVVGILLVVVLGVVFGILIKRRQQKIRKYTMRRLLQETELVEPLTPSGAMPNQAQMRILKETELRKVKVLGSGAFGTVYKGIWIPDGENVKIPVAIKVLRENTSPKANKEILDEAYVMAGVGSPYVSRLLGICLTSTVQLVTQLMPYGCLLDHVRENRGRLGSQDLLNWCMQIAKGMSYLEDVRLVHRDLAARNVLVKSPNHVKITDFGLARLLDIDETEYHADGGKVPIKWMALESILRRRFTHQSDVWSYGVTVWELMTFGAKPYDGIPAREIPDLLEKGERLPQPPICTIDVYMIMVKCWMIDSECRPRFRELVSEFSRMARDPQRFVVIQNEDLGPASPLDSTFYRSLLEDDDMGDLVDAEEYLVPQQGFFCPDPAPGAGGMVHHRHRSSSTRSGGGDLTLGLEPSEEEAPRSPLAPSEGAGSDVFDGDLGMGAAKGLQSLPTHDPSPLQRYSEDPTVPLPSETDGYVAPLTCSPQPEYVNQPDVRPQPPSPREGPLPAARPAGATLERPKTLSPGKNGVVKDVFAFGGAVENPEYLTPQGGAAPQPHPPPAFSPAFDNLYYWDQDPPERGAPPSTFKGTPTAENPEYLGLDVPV
The species entered for experiment [4] is Homo sapiens. Nature of the experiment: Inhibition of InR at 10 uM. The arrangement: scale not given: the % may be the effect or the level left.
For experiment [5], the species on record is Homo sapiens. Nature of the experiment: Inhibition of bcr-Abl at 10 uM. The arrangement: scale not given: the % may be the effect or the level left.
Experiment [6] deals with Hepatocyte growth factor receptor (Homo sapiens) (UniProt P08581). Nature of the experiment: Inhibition of cMet at 10 uM. The arrangement: scale not given: the % may be the effect or the level left.
Experiment [7] concerns the target Fibroblast growth factor receptor 1 (Homo sapiens) (UniProt P11362). Nature of the experiment: Inhibition of FGFR1 at 10 uM. Further details: scale not given: the % may be the effect or the level left.
Experiment [8] has as its target Cyclin-dependent kinase 2 (Homo sapiens) (UniProt P24941). Nature of the experiment: Inhibition of Cdk2 at 10 uM. The arrangement: scale not given: the % may be the effect or the level left.
The species named for experiment [9] is Homo sapiens. Nature of the experiment: Inhibition of PKA at 10 uM. Further details: scale not given: the % may be the effect or the level left.
In experiment [10] the target is Receptor-type tyrosine-protein kinase FLT3 (Homo sapiens) (UniProt P36888). Briefly: Inhibition of Flt3 at 10 uM. Further details: scale not given: the % may be the effect or the level left.
The target in experiment [11] is T1, Vascular endothelial growth factor receptor 2 (Homo sapiens, UniProt P35968). Briefly: Inhibition of VEGFR2 assessed as inhibition of phosphorylation in human 293 cells by cell-based ELISA. It counts as functional, HEK293. (In general: An ELISA detects its analyte on a solid surface through an enzyme-linked reagent.)
T1 sequence (P35968 whole entry): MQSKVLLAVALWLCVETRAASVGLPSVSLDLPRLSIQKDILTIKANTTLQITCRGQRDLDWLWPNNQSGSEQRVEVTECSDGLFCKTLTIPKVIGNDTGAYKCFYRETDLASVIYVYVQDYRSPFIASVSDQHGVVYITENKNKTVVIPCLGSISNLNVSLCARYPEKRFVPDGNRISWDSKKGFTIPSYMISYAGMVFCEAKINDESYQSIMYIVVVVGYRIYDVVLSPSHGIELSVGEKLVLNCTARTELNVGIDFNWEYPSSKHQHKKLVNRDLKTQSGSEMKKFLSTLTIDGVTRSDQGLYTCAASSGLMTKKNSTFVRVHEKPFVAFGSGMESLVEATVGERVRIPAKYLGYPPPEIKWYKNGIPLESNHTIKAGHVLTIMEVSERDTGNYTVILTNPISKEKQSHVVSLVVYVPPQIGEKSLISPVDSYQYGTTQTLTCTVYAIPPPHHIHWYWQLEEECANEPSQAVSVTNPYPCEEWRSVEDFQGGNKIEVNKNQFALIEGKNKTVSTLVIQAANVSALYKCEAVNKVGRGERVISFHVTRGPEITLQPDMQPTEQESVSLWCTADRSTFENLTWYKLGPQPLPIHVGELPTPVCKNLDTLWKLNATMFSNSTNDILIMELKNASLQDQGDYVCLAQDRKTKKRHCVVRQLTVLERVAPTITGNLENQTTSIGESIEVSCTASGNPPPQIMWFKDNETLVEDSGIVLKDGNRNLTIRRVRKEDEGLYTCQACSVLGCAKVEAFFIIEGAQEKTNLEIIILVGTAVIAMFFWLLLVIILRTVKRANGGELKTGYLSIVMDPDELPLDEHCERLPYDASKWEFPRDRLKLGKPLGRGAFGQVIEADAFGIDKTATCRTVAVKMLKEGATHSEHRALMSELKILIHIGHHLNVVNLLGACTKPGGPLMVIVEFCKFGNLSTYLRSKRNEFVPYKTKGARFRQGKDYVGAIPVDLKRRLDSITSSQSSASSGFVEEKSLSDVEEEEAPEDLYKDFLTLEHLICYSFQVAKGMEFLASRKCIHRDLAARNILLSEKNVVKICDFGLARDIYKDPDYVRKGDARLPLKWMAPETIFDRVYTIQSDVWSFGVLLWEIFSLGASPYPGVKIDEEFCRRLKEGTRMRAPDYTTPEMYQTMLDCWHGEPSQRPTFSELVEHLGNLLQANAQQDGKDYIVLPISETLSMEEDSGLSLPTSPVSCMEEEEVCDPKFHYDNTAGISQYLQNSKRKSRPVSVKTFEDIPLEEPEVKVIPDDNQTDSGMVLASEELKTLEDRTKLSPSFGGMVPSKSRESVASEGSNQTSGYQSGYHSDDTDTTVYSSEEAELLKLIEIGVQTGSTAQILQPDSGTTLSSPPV
The target in experiment [12] is Insulin-like growth factor 1 receptor (Homo sapiens) (UniProt P08069). Nature of the experiment: Inhibition of IGF1R at 10 uM. Further details: scale not given: the % may be the effect or the level left.
Experiment [13] concerns the target RAC-alpha serine/threonine-protein kinase (Homo sapiens) (UniProt P31749). Briefly: Inhibition of PKB/Akt at 10 uM. The arrangement: scale not given: the % may be the effect or the level left.
The target in experiment [14] is RAF proto-oncogene serine/threonine-protein kinase (Homo sapiens) (UniProt P04049). Briefly: Inhibition of Raf1 at 10 uM. The arrangement: scale not given: the % may be the effect or the level left.
Experiment [15] deals with T1, Vascular endothelial growth factor receptor 2. Nature of the experiment: Inhibition of VEGFR2 assessed as inhibition of phosphorylation in presence of 2 uM ATP by HTRF assay. It counts as functional.
For experiment [16], the target named is Epidermal growth factor receptor (Homo sapiens) (UniProt P00533). Briefly: Inhibition of ErbB1 at 10 uM. The arrangement: scale not given: the % may be the effect or the level left.
Chain of Epidermal growth factor receptor (Homo sapiens) (P00533 whole entry): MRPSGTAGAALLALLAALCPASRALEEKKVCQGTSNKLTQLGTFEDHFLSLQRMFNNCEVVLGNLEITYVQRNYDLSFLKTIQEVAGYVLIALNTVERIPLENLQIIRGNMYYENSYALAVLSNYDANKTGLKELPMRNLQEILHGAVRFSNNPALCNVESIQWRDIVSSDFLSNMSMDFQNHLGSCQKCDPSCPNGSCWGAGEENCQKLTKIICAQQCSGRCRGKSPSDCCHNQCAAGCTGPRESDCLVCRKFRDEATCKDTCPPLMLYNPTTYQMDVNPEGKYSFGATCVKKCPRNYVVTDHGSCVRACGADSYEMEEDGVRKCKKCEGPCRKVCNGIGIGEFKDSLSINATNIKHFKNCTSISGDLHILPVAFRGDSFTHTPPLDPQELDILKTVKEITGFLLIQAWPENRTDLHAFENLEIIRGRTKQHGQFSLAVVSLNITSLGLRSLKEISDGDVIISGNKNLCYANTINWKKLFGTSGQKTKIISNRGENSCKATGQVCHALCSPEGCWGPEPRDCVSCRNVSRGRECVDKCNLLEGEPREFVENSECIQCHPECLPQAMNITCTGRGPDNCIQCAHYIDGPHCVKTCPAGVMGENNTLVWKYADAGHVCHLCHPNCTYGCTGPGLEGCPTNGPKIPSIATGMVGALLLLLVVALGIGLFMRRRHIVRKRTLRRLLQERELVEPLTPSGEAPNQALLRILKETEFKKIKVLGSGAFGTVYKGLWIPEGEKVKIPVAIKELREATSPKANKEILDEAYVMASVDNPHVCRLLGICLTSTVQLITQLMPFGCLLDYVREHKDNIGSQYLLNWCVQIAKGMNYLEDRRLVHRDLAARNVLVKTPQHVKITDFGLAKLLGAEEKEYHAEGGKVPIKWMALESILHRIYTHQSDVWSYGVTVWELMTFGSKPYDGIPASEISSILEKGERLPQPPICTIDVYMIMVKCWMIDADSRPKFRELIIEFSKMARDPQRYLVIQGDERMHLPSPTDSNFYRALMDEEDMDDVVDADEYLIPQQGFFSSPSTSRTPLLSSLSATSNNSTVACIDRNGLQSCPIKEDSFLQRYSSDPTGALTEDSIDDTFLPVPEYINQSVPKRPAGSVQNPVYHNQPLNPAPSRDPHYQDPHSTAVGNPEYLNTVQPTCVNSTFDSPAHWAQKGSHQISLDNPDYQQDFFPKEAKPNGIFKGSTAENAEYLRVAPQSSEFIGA
Experiment [17] has as its target Vascular endothelial growth factor receptor 3 (Homo sapiens) (UniProt P35916). Nature of the experiment: Inhibition of Flt4 at 10 uM. Further details: scale not given: the % may be the effect or the level left.
The species named for experiment [18] is Homo sapiens. Nature of the experiment: Inhibition of Cdk1 at 10 uM. The arrangement: scale not given: the % may be the effect or the level left.

Chain of Fibroblast growth factor receptor 1 (Homo sapiens) (P11362 22-822 limits assumed): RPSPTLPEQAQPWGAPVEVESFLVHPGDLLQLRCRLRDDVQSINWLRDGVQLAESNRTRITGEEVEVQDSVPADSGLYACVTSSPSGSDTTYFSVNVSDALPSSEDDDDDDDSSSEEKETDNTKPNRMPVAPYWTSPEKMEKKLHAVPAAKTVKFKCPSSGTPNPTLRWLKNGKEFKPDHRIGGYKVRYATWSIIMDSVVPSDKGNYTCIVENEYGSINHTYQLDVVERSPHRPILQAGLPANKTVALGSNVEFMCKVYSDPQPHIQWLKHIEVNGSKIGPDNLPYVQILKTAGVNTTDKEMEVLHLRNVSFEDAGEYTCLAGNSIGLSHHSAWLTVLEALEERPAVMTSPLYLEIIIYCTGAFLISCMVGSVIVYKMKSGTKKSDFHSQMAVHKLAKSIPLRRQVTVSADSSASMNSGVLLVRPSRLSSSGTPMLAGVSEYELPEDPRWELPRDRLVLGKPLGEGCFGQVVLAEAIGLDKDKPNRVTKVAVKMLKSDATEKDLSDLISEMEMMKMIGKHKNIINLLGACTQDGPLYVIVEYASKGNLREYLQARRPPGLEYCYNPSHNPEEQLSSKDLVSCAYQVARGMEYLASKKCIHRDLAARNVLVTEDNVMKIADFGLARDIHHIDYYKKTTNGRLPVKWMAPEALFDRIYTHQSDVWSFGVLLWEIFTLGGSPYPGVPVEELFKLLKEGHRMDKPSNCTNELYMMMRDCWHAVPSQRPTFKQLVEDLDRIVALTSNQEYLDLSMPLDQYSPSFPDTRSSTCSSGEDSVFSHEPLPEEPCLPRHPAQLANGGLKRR

The IC50 is the concentration that gives 50% inhibition. For `O=C(Nc1ccc(C(F)(F)F)c(Cl)c1)c1nc2ccccc2n1CCc1ccncc1`, the IC50 in experiment [1], in [11] and in [15] was greater than 10000 nM throughout. Moreover, the Activity in experiment [2], in experiment [3], in experiment [4], in experiment [5], in [6] and in experiment [7] was greater than 30% in each case. In addition, the Activity in experiment [8], in experiment [9], in experiment [10], in experiment [12], in experiment [13] and in experiment [14] was greater than 30% in each case. Also, the values for the Activity in [16], in experiment [17] and in experiment [18] were less than 30%, greater than 30% and greater than 30%, respectively.
For `O=C(Nc1ccc(Cl)cc1)c1nc2ccccc2n1CCc1ccncc1`, the IC50 in experiment [1], in experiment [11] and in [15] was greater than 10000 nM in each case. Besides, the Activity in experiment [2], in experiment [3], in experiment [4], in experiment [5], in experiment [6] and in experiment [7] was greater than 30% each time. Moreover, the Activity in experiment [8], in [9], in experiment [10], in experiment [12], in experiment [13] and in experiment [14] was greater than 30% throughout. Also, the Activity in experiment [16] is less than 30%; in experiment [17] it was greater than 30%; in experiment [18], greater than 30%.
Turning to `COc1ccc(CCn2nccc2C(=O)Nc2ccc(Cl)cc2)cc1OC`, the IC50 in experiment [1], in [11] and in experiment [15] was greater than 10000 nM throughout. For the same compound, the Activity in experiment [2], in experiment [3], in [4], in experiment [5], in experiment [6] and in [7] was greater than 30% throughout. For the same compound, the Activity in experiment [8], in experiment [9], in experiment [10], in experiment [12], in [13] and in experiment [14] was greater than 30% in each case. Also, the Activity in experiment [16] is less than 30%; in experiment [17], greater than 30%; in experiment [18], greater than 30%.
With `Cc1nn(CCc2ccncc2)c(C(=O)Nc2ccc(Cl)cc2)c1C`, the IC50 in experiment [1], in experiment [11] and in experiment [15] was greater than 10000 nM each time. Moreover, the Activity in experiment [2], in experiment [3], in experiment [4], in experiment [5], in experiment [6] and in experiment [7] was greater than 30% throughout. Moreover, the Activity in experiment [8], in experiment [9], in [10], in experiment [12], in experiment [13] and in experiment [14] was greater than 30% throughout. The values for the Activity in experiment [16], in [17] and in experiment [18] were less than 30%, greater than 30% and greater than 30%, respectively.
As to `O=C(Nc1ccc(Cl)c(Cl)c1)c1ccnn1CCc1ccncc1`, the IC50 was 860 nM in experiment [1], 120 nM in [11] and 260 nM in [15]. The Activity in experiment [2], in experiment [3], in [4], in experiment [5], in experiment [6] and in experiment [7] was greater than 30% each time. The Activity in experiment [8], in experiment [9], in [10], in experiment [12], in [13] and in experiment [14] was greater than 30% each time. For the same compound, the values for the Activity in experiment [16], in [17] and in experiment [18] were less than 30%, greater than 30% and greater than 30%, respectively.
With `O=C(Nc1cnc2ccccc2c1)c1ccnn1CCc1ccncc1`, the IC50 in experiment [1] came out at 380 nM; in experiment [11], 1220 nM; in experiment [15], 180 nM. In addition, the Activity in [2], in experiment [3], in experiment [4], in [5], in experiment [6] and in [7] was greater than 30% throughout. Moreover, the Activity in [8], in experiment [9], in experiment [10], in [12], in experiment [13] and in experiment [14] was greater than 30% each time. The results for the Activity in experiment [16], in experiment [17] and in experiment [18] were less than 30%, greater than 30% and greater than 30%, respectively.
For `O=C(Nc1ccc(C(F)(F)F)cc1)c1nccn1CCc1ccncc1`, the IC50 in experiment [1] is 790 nM; in [11], 1660 nM; in experiment [15], 470 nM. The Activity in [2], in experiment [3], in [4], in experiment [5], in experiment [6] and in [7] was greater than 30% in each case. For the same compound, the Activity in experiment [8], in experiment [9], in experiment [10], in experiment [12], in experiment [13] and in experiment [14] was greater than 30% in each case. Besides, the Activity is less than 30% in [16], greater than 30% in experiment [17] and greater than 30% in experiment [18].
Take `O=C(Nc1ccc(OCc2ccccc2)cc1)c1ccnn1CCc1ccncc1`: the IC50 in experiment [1], in experiment [11] and in [15] was greater than 10000 nM each time. Further, the Activity in [2], in experiment [3], in [4], in [5], in experiment [6] and in experiment [7] was greater than 30% in each case. The Activity in experiment [8], in experiment [9], in [10], in experiment [12], in experiment [13] and in experiment [14] was greater than 30% in each case. Further, the Activity in experiment [16] is less than 30%; in [17], greater than 30%; in experiment [18], greater than 30%.
On to `O=C(Nc1ccc2[nH]ncc2c1)c1ccnn1CCc1ccncc1`, for which the IC50 was greater than 10000 nM in experiment [1], greater than 10000 nM in [11] and 5150 nM in experiment [15]. Besides, the Activity in experiment [2], in [3], in experiment [4], in experiment [5], in experiment [6] and in [7] was greater than 30% each time. Besides, the Activity in experiment [8], in experiment [9], in [10], in experiment [12], in experiment [13] and in experiment [14] was greater than 30% throughout. Besides, the Activity in experiment [16] is less than 30%; in [17], greater than 30%; in experiment [18], greater than 30%.
`O=C(Nc1ccc(Cl)c(C(F)(F)F)c1)c1ccnn1CCc1ccncc1`: the IC50 in [1] is 2330 nM; in [11], 450 nM; in [15], 750 nM. Moreover, the Activity in experiment [2], in experiment [3], in experiment [4], in experiment [5], in [6] and in experiment [7] was greater than 30% each time. In addition, the Activity in [8], in [9], in [10], in [12], in experiment [13] and in experiment [14] was greater than 30% each time. For the same compound, the Activity in [16] is less than 30%; in experiment [17], greater than 30%; in [18] it was greater than 30%.
Regarding `O=C(Nc1ccc2cn[nH]c2c1)c1ccnn1CCc1ccncc1`, the concentration for half-maximal inhibition (IC50) in experiment [1], in experiment [11] and in experiment [15] was greater than 10000 nM each time. Besides, the Activity in [2], in experiment [3], in experiment [4], in experiment [5], in experiment [6] and in [7] was greater than 30% each time. Moreover, the Activity in experiment [8], in experiment [9], in [10], in experiment [12], in experiment [13] and in [14] was greater than 30% in each case. Further, the Activity in experiment [16] was less than 30%; in [17], greater than 30%; in experiment [18], greater than 30%.
